The experiment has as its target Human PKK (Homo sapiens (Human), UniProt P03952). The experiment is described as follows: Inhibition of PKK, endpoint assay (human PKK). In kind it is biochemical. As to conditions: substrate H-Pro-Phe-Arg-AMC, 1 h room temperature. On the procedure: Subsequently, PPACK II (Calbiochem) was added as a stop solution to achieve a final concentration of 1 μM and fluorescence was measured using an Envision Reader (PerkinElmer) with the wavelength excitation setting of 355 nm and the wavelength emission setting of 460 nm.

The record followed here is patent US10695334B2, “Heteroaromatic carboxamide derivatives as plasma kallikrein inhibitors” (Boehringer Ingelheim International GmbH, priority 2018, dated 2020).

Chain of Human PKK (P03952 391-638): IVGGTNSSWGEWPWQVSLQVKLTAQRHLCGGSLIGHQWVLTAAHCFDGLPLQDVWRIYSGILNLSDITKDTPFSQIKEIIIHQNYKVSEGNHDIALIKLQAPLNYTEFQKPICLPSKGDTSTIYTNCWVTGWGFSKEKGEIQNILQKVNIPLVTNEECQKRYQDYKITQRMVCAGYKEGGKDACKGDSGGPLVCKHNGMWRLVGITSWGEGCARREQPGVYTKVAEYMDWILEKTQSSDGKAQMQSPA
Chain of Human PKK (P03952 20-390 partner): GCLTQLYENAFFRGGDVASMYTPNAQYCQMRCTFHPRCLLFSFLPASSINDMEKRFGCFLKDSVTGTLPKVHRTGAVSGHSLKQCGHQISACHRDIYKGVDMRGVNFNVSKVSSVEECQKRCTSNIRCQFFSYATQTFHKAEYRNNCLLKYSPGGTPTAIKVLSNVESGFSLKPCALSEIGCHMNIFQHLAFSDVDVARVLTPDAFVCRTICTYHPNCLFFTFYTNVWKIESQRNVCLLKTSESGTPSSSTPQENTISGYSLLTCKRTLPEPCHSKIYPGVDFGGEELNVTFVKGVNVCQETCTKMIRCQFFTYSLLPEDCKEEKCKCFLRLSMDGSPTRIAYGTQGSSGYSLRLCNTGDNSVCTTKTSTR

As usually defined, the IC50 is the concentration that gives 50% inhibition. `Cc1nc(N2CCCCC2)ccc1Cn1cc(C(=O)N[C@@H]2CCc3c2n[nH]c3C)cn1` [Example 34, N-[(6R)-3-Methyl-2H,4H,5H,6H-cyclopenta[c]pyrazol-6-yl]-1-{[2-methyl-6-(piperidin-1-yl)pyridin-3-yl]methyl}-1H-pyrazole-4-carboxamide] had an IC50 of 11 nM.

`CCC1(C)CN(c2ccc(Cn3cc(C(=O)N[C@@H]4CCc5c4n[nH]c5C)cn3)c(C)n2)C1` [Example 42, 1-{[6-(3-Ethyl-3-methylazetidin-1-yl)-2-methylpyridin-3-yl]methyl}-N-[(6R)-3-methyl-2H,4H,5H,6H-cyclopenta[c]pyrazol-6-yl]-1H-pyrazole-4-carboxamide] came in with an IC50 of 6 nM.

`Cc1nc(N2CC3CCCC3C2)ccc1Cn1cc(C(=O)N[C@@H]2CCc3c2n[nH]c3C)cn1` (stereo partly drawn) [Example 62, N-[(6R)-3-Methyl-2H,4H,5H,6H-cyclopenta[c]pyrazol-6-yl]-1-[(2-methyl-6-{octahydrocyclopenta[c]pyrrol-2-yl}pyridin-3-yl)methyl]-1H-pyrazole-4-carboxamide] displayed an IC50 of 7 nM. This IC50 and that of the compound before are within 1.5-fold of each other.

For the compound `COC1(C)CN(c2ccc(Cn3cc(C(=O)N[C@@H]4CCc5c4n[nH]c5C)cn3)c(C)n2)C1` [Example 44, 1-{[6-(3-Methoxy-3-methylazetidin-1-yl)-2-methylpyridin-3-yl]methyl}-N-[(6R)-3-methyl-2H,4H,5H,6H-cyclopenta[c]pyrazol-6-yl]-1H-pyrazole-4-carboxamide], the IC50 was determined as 20 nM.

In the case of `Cc1nc(N2CC(n3cccn3)C2)ccc1Cn1cc(C(=O)N[C@@H]2CCc3c2n[nH]c3C)cn1` [Example 58, N-[(6R)-3-Methyl-2H,4H,5H,6H-cyclopenta[c]pyrazol-6-yl]-1-({2-methyl-6[3-(1H-pyrazol-1-yl)azetidin-1-yl]pyridin-3-yl}methyl)-1H-pyrazole-4-carboxamide], 20 nM corresponded to half-maximal inhibition (IC50). In other words, the double-digit nanomolar range.

Regarding `Cc1nc(N2CC3(CCOCC3)C2)ccc1Cn1cc(C(=O)N[C@@H]2CCc3c2n[nH]c3C)cn1` [Example 63, N-[(6R)-3-Methyl-2H,4H,5H,6H-cyclopenta[c]pyrazol-6-yl]-1-[(2-methyl-6-{7-oxa-2-azaspiro[3.5]nonan-2-yl]pyridin-3-yl)methyl]-1H-pyrazole-4-carboxamide], the IC50 came to 85 nM.

For the compound `COCc1nn(Cc2cnc(N3CC4CC4C3)nc2C)cc1C(=O)N[C@@H]1CCc2c(C)n[nH]c21` (stereo partly drawn) [Example 28, 1-[(2-{3-Azabicyclo[3.1.0]hexan-3-yl}-4-methyl-pyrimidin-5-yl)methyl]-3-(methoxymethyl)-N-[(6R)-3-methyl-1H,4H,5H,6H-cyclopenta[c]pyrazol-6-yl]-1H-pyrazole-4-carboxamide], half-maximal inhibition (IC50) was put at 4 nM.

Take `Cc1nc(N2C[C@@H]3[C@@H](CF)[C@@H]3C2)ccc1Cn1cc(C(=O)N[C@@H]2CCc3c2n[nH]c3C)cn1` [Example 95, 1-({6-[(1R,5S,6R)-6-(Fluoromethyl)-3-azabicyclo[3.1.0]hexan-3-yl]-2-methylpyridin-3-yl}methyl)-N-[(6R)-3-methyl-2H,4H,5H,6H-cyclopenta[c]pyrazol-6-yl]-1H-pyrazole-4-carboxamide]: the half-inhibitory concentration (IC50) turned out to be 4 nM. This counts as single-digit nanomolar.

Take `Cc1nc(N2CC3CC2C3)ccc1Cn1cc(C(=O)N[C@@H]2CCc3c2n[nH]c3C)cn1` [Example 49, 1-[(6-{2-Azabicyclo[2.1.1]hexan-2-yl}-2-methylpyridin-3-yl)methyl]-N-[(6R)-3-methyl-2H,4H,5H,6H-cyclopenta[c]pyrazol-6-yl]-1H-pyrazole-4-carboxamide]: half-maximal inhibition (IC50) was put at 42 nM.

As for `Cc1nc(N2C[C@@H]3[C@@H](CO)[C@@H]3C2)ccc1Cn1cc(C(=O)N[C@@H]2CCc3c2n[nH]c3C)cn1` [Example 38, 1-({6-[(1R,5S,6R)-6-(Hydroxymethyl)-3-azabicyclo[3.1.0]hexan-3-yl]-2-methylpyridin-3-yl}methyl)-N-[(6R)-3-methyl-2H,4H,5H,6H-cyclopenta[c]pyrazol-6-yl]-1H-pyrazole-4-carboxamide], the concentration for half-maximal inhibition (IC50) is 26 nM. Against the preceding compound, the IC50 is about 1.6-fold lower.

In the case of `Cc1nc(N2CC3CC3C2)ncc1Cn1cnc(C(=O)N[C@@H]2CCc3c2n[nH]c3C)c1` (stereo partly drawn) [Example 91, 1-[(2-{3-Azabicyclo[3.1.0]hexan-3-yl}-4-methyl-pyrimidin-5-yl)methyl]-N-[(6R)-3-methyl-2H,4H,5H,6H-cyclopenta[c]pyrazol-6-yl]-1H-imidazole-4-carboxamide], the 50% inhibitory concentration (IC50) was determined as 3 nM.

The compound `Cc1nc(N2CC3CC3C2)ccc1Cn1cc(C(=O)N[C@@H]2CCc3c(C)n[nH]c32)c(-c2cnn(C)c2)n1` (stereo partly drawn) [Example 32, 1-[(6-{3-Azabicyclo[3.1.0]hexan-3-yl}-2-methyl-pyridin-3-yl)methyl]-1′-methyl-N-[(6R)-3-methyl-1H,4H,5H,6H-cyclopenta[c]pyrazol-6-yl]-1H,1′H-[3,4′-bipyrazole]-4-carboxamide] showed a 50% inhibitory concentration (IC50) of 2 nM.

In turn, `Cc1nc(N2CC(c3ccc(F)cc3)C2)ccc1Cn1cc(C(=O)N[C@@H]2CCc3c2n[nH]c3C)cn1` [Example 81, 1-({6-[3-(4-Fluorophenyl)azetidin-1-yl]-2-methylpyridin-3-yl}methyl)-N-[(6R)-3-methyl-2H,4H,5H,6H-cyclopenta[c]pyrazol-6-yl]-1H-pyrazole-4-carboxamide] displayed an IC50 of 161 nM.

On to `Cc1nc(N2CC3CCC3C2)ccc1Cn1cc(C(=O)N[C@@H]2CCc3c2n[nH]c3C)cn1` (stereo partly drawn) [Example 68, 1-[(6-{3-Azabicyclo[3.2.0]heptan-3-yl}-2-methylpyridin-3-yl)methyl]-N-[(6R)-3-methyl-2H,4H,5H,6H-cyclopenta[c]pyrazol-6-yl]-1H-pyrazole-4-carboxamide], for which the IC50 was determined as 4 nM. This IC50 is about 40-fold lower than that of the compound before.

In the case of `Cc1nc(N2CC3CC(C2)O3)ccc1Cn1cc(C(=O)N[C@@H]2CCc3c2n[nH]c3C)cn1` [Example 64, N-[(6R)-3-Methyl-2H,4H,5H,6H-cyclopenta[c]pyrazol-6-yl]-1-[(2-methyl-6-{6-oxa-3-azabicyclo[3.1.1]heptan-3-yl}pyridin-3-yl)methyl]-1H-pyrazole-4-carboxamide], the half-inhibitory concentration (IC50) worked out at 32 nM.

Turning to `Cc1nc(N2CC(C)(C#N)C2)ccc1Cn1cc(C(=O)N[C@@H]2CCc3c2n[nH]c3C)cn1` [Example 41, 1-{[6-(3-Cyano-3-methylazetidin-1-yl)-2-methylpyridin-3-yl]methyl}-N-[(6R)-3-methyl-2H,4H,5H,6H-cyclopenta[c]pyrazol-6-yl]-1H-pyrazole-4-carboxamide], the midpoint of inhibition, the IC50, lay at 13 nM.

On to `Cc1nc(N2CC3C(C2)C3(F)F)ccc1Cn1cc(C(=O)N[C@H]2CCc3c(C)n[nH]c32)cn1` (stereo partly drawn) [Example 4, 1-[(6-{6,6-Difluoro-3-azabicyclo[3.1.0]hexan-3-yl}-2-methylpyridin-3-yl)methyl]-N-[(6S)-3-methyl-1H,4H,5H,6H-cyclopenta[c]pyrazol-6-yl]-1H-pyrazole-4-carboxamide], for which the IC50 stood at 9 nM.

Take `Cc1nc(N2CCCCCC2)ccc1Cn1cc(C(=O)N[C@@H]2CCc3c2n[nH]c3C)cn1` [Example 65, 1-{[6-(Azepan-1-yl)-2-methylpyridin-3-yl]methyl}-N-[(6R)-3-methyl-2H,4H,5H,6H-cyclopenta[c]pyrazol-6-yl]-1H-pyrazole-4-carboxamide]: the midpoint of inhibition, the IC50, lay at 10 nM.

In turn, `Cc1nc(N2CC(C(F)(F)F)C2)ccc1Cn1cc(C(=O)N[C@@H]2CCc3c2n[nH]c3C)cn1` [Example 69, N-[(6R)-3-Methyl-2H,4H,5H,6H-cyclopenta[c]pyrazol-6-yl]-1-({2-methyl-6-[3-(trifluoromethyl)azetidin-1-yl]pyridin-3-yl}methyl)-1H-pyrazole-4-carboxamide] gave an IC50 of 17 nM.

Compound `Cc1nc(N2C[C@H]3COC[C@H]3C2)ccc1Cn1cc(C(=O)N[C@@H]2CCc3c2n[nH]c3C)cn1` [Example 72, 1-({6-[(3aR,6aS)-Hexahydro-1H-furo[3,4-c]pyrrol-5-yl]-2-methylpyridin-3-yl}methyl)-N-[(6R)-3-methyl-2H,4H,5H,6H-cyclopenta[c]pyrazol-6-yl]-1H-pyrazole-4-carboxamide] yielded a concentration for half-maximal inhibition (IC50) of 36 nM.

`Cc1nc(N2CC3C(C2)C3(F)F)ncc1Cn1cc(C(=O)N[C@@H]2CCc3c(C)n[nH]c32)nn1` (stereo partly drawn) [Example 85, 1-[(2-{6,6-Difluoro-3-azabicyclo[3.1.0]hexan-3-yl}-4-methylpyrimidin-5-yl)methyl]-N-[(6R)-3-methyl-1H,4H,5H,6H-cyclopenta[c]pyrazol-6-yl]-1H-1,2,3-triazole-4-carboxamide] came in with a half-inhibitory concentration (IC50) of 4 nM. Against the preceding compound, the IC50 is about 9-fold lower.

The compound `Cc1nc(N2CCC(C(F)(F)F)C2)ccc1Cn1cc(C(=O)N[C@@H]2CCc3c2n[nH]c3C)cn1` (stereo partly drawn) [Example 60, N-[(6R)-3-Methyl-2H,4H,5H,6H-cyclopenta[c]pyrazol-6-yl]-1-({2-methyl-6-[3-(trifluoromethyl)pyrrolidin-1-yl]pyridin-3-yl}methyl)-1H-pyrazole-4-carboxamide] came in with a half-maximal inhibitory concentration (IC50) of 7 nM.

As for `Cc1nc(N2CC3CC3C2)ccc1Cn1cc(C(=O)N[C@@H]2CCc3c2n[nH]c3C)c(C(C)(C)O)n1` (stereo partly drawn) [Example 106, 1-[(6-{3-Azabicyclo[3.1.0]hexan-3-yl}-2-methylpyridin-3-yl)methyl]-3-(2-hydroxypropan-2-yl)-N-[(6R)-3-methy-2H,4H,5H,6H-cyclopenta[c]pyrazol-6-yl]-1H-pyrazole-4-carboxamide], the IC50 is 0.9 nM.

As for `Cc1nc(N2CC(C)C2)ccc1Cn1cc(C(=O)N[C@@H]2CCc3c2n[nH]c3C)cn1` [Example 61, N-[(6R)-3-Methyl-2H,4H,5H,6H-cyclopenta[c]pyrazol-6-yl]-1-{[2-methyl-6-(3-methylazetidin-1-yl)pyridin-3-yl]methyl}-1H-pyrazole-4-carboxamide], the IC50 stood at 5 nM.

Consider `Cc1nc(N2CC3C(C2)C3(F)F)ccc1Cn1cc(C(=O)N[C@@H]2CCc3c(C)n[nH]c32)c(C)n1` (stereo partly drawn) [Example 18, 1-[(6-{6,6-Difluoro-3-azabicyclo[3.1.0]hexan-3-yl}-2-methylpyridin-3-yl)methyl]-3-methyl-3-methyl-N-[(6R)-3-methyl-1H,4H,5H,6H-cyclopenta[c]pyrazol-6-yl]-1H-pyrazole-4-carboxamide], for which half-maximal inhibition (IC50) was put at 0.9 nM.
